The results in this text go back to ChEMBL document CHEMBL1177805, “AMP-activated protein kinase (AMPK) activators from Myristica fragrans (nutmeg) and their anti-obesity effect” (Bioorg Med Chem Lett, 2010).

The target of the assay is 5'-AMP-activated protein kinase catalytic subunit alpha-2 (Mus musculus) (UniProt Q8BRK8). In words: Activation of AMPK in mouse […] cells at 5 uM by Western blotting. It counts as cell-based. A general note: In western blotting, separated proteins are transferred to a membrane and probed.

The source made the active and inactive calls. The rule behind the calls is not given here.

5'-AMP-activated protein kinase catalytic subunit alpha-2 (Mus musculus), sequence (Q8BRK8 whole entry): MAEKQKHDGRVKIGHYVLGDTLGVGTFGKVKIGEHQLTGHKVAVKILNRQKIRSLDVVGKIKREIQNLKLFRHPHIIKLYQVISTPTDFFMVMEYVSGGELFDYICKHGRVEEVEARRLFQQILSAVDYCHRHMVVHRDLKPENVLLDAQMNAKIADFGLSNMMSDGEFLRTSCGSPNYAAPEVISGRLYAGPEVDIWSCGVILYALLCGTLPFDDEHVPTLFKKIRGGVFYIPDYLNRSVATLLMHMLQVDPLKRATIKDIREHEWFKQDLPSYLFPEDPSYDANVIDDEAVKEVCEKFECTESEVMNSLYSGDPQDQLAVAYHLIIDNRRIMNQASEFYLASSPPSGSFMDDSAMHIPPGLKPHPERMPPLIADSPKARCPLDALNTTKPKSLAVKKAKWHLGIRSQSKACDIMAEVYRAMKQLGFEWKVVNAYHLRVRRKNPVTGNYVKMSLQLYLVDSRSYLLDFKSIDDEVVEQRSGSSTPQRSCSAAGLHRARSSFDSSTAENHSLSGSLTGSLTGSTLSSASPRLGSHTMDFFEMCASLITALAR

`COc1cc([C@H]2O[C@@H](c3ccc(O)c(OC)c3)[C@H](C)[C@@H]2C)ccc1O`: the result was Active.
The same measure for `COc1cc([C@H]2O[C@@H](c3ccc(O)c(OC)c3)[C@@H](C)[C@H]2C)ccc1O`: “Active”.
